From US20210008175A1, “BACTERIOPHAGE LYSIN AND ANTIBIOTIC COMBINATIONS AGAINST GRAM POSITIVE BACTERIA” (priority 2012, published 2021)
≈ marks a conversion by molar mass, not a printed value. Read-outs that look alike come from different tables or passages of the source. Marks after values point to notes of the source that are not given here.

Key:
[1] = tested on: Staphylococcus aureus; assay: MIC, broth microdilution (CLSI M07-A9); type: cell-based
[2] = tested on: Staphylococcus aureus (MRSA and MSSA strains); assay: Time kill assay, single agents at 1×MIC (CLSI); type: cell-based; settings: for kill within 6 hours: 1×MIC
[3] = tested on: Staphylococcus aureus (MRSA and MSSA strains); assay: Synergy time-kill assay (6 hours, combination compared to most active single agent); type: cell-based; settings: ½ MIC PlySs2 or ¼ MIC vancomycin alone, up to 6 hours
[4] = tested on: S. aureus; assay: Murine bacteremia model, survival; type: in vivo, BALB/c mice; settings: high challenge (10^9 CFU MRSA MW2), dosing at 2 hours; vancomycin 110 mg/kg twice daily, PlySs2 5.25 mg/kg (FIG. 27E)
[5] = tested on: MRSA Staphylococcus aureus strain (MW2); assay: microbe, parasite or virus in culture; type: cell-based; settings: for MIC: Staphylococcus aureus, MRSA, 600 h
[6] = tested on: S. aureus; assay: Cell envelope binding of BODIPY-fluorescein-labeled antibiotics; type: cell-based
Procedure: As a complement to the synergy studies, daptomycin and vancomycin cell envelope-binding was examined using BODIPY-fluorescein-labeled antibiotics in the presence and absence of sub-MIC levels of CF-301. […] Similarly, cell wall-labeling with vancomycin occurs within 5 minutes in the presence of CF-301 (⅛^th MIC) versus 30 minutes without CF-301 (FIG. 20B). For both antibiotics, the labeling was first observed at bacterial division planes.

[7] = DRSA (n = 8), with reducing agent

Question: Cc1onc(-c2ccccc2)c1C(=O)N[C@@H]1C(=O)N2[C@@H]1SC(C)(C)[C@@H]2C(=O)O [Oxacillin, oxacillin] was tested. Which MIC50/90 ([1]; MRSA (n = 45)) did it give?
Answer: >4*

Question: What about the “MIC50/90 [uM]” value ([1]; MRSA (n = 45)) of the same compound?
Answer: >10.0 µM

Question: What about the “kill within 6 hours” value [2] of the same compound?
Answer: 2 log10

Question: What about the “relative effectiveness among antibiotic agents” value ([2]; MSSA strains) of the same compound?
Answer: least effective

Question: With CN[C@H](CC(C)C)C(=O)N[C@H]1C(=O)N[C@@H](CC(N)=O)C(=O)N[C@H]2C(=O)N[C@H]3C(=O)N[C@H](C(=O)N[C@H](C(=O)O)c4cc(O)cc(O)c4-c4cc3ccc4O)[C@H](O)c3ccc(c(Cl)c3)Oc3cc2cc(c3O[C@@H]2O[C@H](CO)[C@@H](O)[C@H](O)[C@H]2O[C@H]2C[C@](C)(N)[C@H](O)[C@H](C)O2)Oc2ccc(cc2Cl)[C@H]1O [Vancomycin, vancomycin] as the compound, how does the MIC90 [1, 7] read?
Answer: 1

Question: And the “MIC90 [uM]” value [1, 7]?
Answer: 0.7 µM (≈ 1.01 µg/mL)

Question: And the MIC90 ([1]; LRSA (n = 5), with reducing agent)?
Answer: 1

Question: And the MIC90 ([1]; MRSA (n = 45), with reducing agent)?
Answer: 1

Question: What about the MIC90 ([1]; MSSA (n-28), with reducing agent) of the same compound?
Answer: 1

Question: And the MIC90 ([1]; Staphylococcus aureus)?
Answer: 0.7 µM (≈ 1.01 µg/mL)

Question: And the MIC90 ([1]; Staphylococcus aureus, MRSA)?
Answer: 0.7 µM (≈ 1.01 µg/mL)

Question: And the MIC90 ([1]; Staphylococcus aureus, MSSA)?
Answer: 0.7 µM (≈ 1.01 µg/mL)

Question: And the MIC90 ([1]; Staphylococcus aureus, VISA)?
Answer: 2.7 µM (≈ 3.91 µg/mL)

Question: What about the MIC90 ([1]; Staphylococcus aureus, VRSA) of the same compound?
Answer: > 10.6 µM

Question: What about the MIC90 ([1]; VISA (n = 10), with reducing agent) of the same compound?
Answer: 4

Question: And the MIC90 ([1]; VRSA (n = 14), with reducing agent)?
Answer: >16

Question: What about the “effectiveness alone at sub-MIC doses” value [3] of the same compound?
Answer: ineffective or poorly effective

Question: And the “24 hour survival rate” value [4]?
Answer: 20%

Question: And the “72 hour survival rate” value [4]?
Answer: 3%

Question: What about the MIC ([5]; read-out: vancomycin MIC, ending values, passaged with PlySs2 (8 ug/ml) plus vancomycin, 25 day) of the same compound?
Answer: 4 µg/mL

Question: What about the MIC ([5]; read-out: vancomycin MIC, ending values, three vancomycin-only cultures, 25-day study) of the same compound?
Answer: 16 µg/mL (≈ 11 µM)

Question: And the “antibiotic MIC, starting value” ([5]; before serial passage)?
Answer: 1 µg/mL

Question: And the “increase of vancomycin MIC” value ([5]; passaged with PlySs2 (8 ug/ml) plus vancomycin)?
Answer: 2 to 4 fold

Question: What about the “vancomycin MIC, ending values” ([5]; passaged with PlySs2 (8 ug/ml) plus vancomycin, 25 day) of the same compound?
Answer: 2 µg/mL

Question: What about the “increase of vancomycin MIC” value ([5]; vancomycin-only cultures, 25-day study) of the same compound?
Answer: 16 fold

Question: What about the “kill within 6 hours” value [2] of the same compound?
Answer: 2 log10

Question: And the “time to cell wall-labeling with vancomycin” value ([6]; in the presence of CF-301 (⅛^th MIC))?
Answer: ≤ 5 min

Question: And the “time to cell wall-labeling with vancomycin” value ([6]; without CF-301)?
Answer: 30 min
